Experimental data reported in patent US10144732B2 (BIOGEN MA INC., priority 2014, dated 2018).
Several values for one entry are separate records, joined by “and”; a condition that tells them apart may be missing. Equal values may be shown once.

These compounds were tested against T1, Human ATX protein (Homo sapiens, UniProt Q13822) (assay: ATX biochemical assay (FRET, FS-3 substrate)). Settings: FRET assay, FS-3 2 μM, ATX 1.0 μg/mL, 30 minutes preincubation, 2 hours reaction at room temperature; read-out: IC50.
T1 construct: made in house
How it was run: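 FRET read-out: cleavage of FS-3 (2 μM final) unquenches fluorescein, measured at 485/538 nm after 2 h at room temperature. Before substrate addition, in-house-expressed human autotaxin (1.0 μg/mL) sat with compound for 30 min in pH 7.4 Tris/NaCl/KCl/CaCl2/MgCl2 buffer containing fatty acid free-BSA at 1 mg/mL.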

| IC50 | SMILES |
| --- | --- |
| ≤ 0.1 µM | O=C(C[C@H]1CC[C@H](C(=O)O)CC1)N1CCc2c(C(F)(F)F)nn(Cc3ccc(F)cc3)c2C1 [Example 7-1, trans-4-(2-(1-(4-Fluorobenzyl)-3-(trifluoromethyl)-4,5-dihydro-1H-pyrazolo[3,4-c]pyridin-6(7H)-yl)-2-oxoethyl)cyclohexanecarboxylic acid] |
| ≤ 0.1 µM | O=C(C[C@H]1CC[C@@H](C(=O)O)CC1)N1CCc2c(C(F)(F)F)nn(Cc3ccc(F)cc3)c2C1 [Example 7-2, cis-4-(2-(1-(4-fluorobenzyl)-3-(trifluoromethyl)-4,5-dihydro-1H-pyrazolo[3,4-c]pyridin-6(7H)-yl)-2-oxoethyl)cyclohexanecarboxylic acid] |
| ≤ 0.1 µM | O=C(C[C@H]1CC[C@H](C(=O)O)CC1)N1CCc2cnn(Cc3ccc(Cl)cc3F)c2C1 [Example 7-3, trans-4-(2-(1-(4-Chloro-2-fluorobenzyl)-4,5-dihydro-1H-pyrazolo[3,4-c]pyridin-6(7H)-yl)-2-oxoethyl)cyclohexanecarboxylic acid] |
| ≤ 0.1 µM | O=C(C[C@H]1CC[C@@H](C(=O)O)CC1)N1CCc2cnn(Cc3ccc(Cl)cc3F)c2C1 [Example 7-4, cis-4-(2-(1-(4-chloro-2-fluorobenzyl)-4,5-dihydro-1H-pyrazolo[3,4-c]pyridin-6(7H)-yl)-2-oxoethyl)cyclohexanecarboxylic acid] |
| ≤ 0.1 µM | O=C(C[C@H]1CC[C@@H](C(=O)O)CC1)N1CCc2c(C(F)(F)F)nn(Cc3ccc(Cl)cc3)c2C1 [Example 7-6, cis-4-(2-(1-(4-chlorobenzyl)-3-(trifluoromethyl)-4,5-dihydro-1H-pyrazolo[3,4-c]pyridin-6(7H)-yl)-2-oxoethyl)cyclohexanecarboxylic acid] |
| ≤ 0.1 µM | O=C(C[C@H]1CC[C@H](C(=O)O)CC1)N1CCc2c(C(F)(F)F)nn(Cc3ccc(Cl)cc3Cl)c2C1 [Example 7-7, trans-4-(2-(1-(2,4-Dichlorobenzyl)-3-(trifluoromethyl)-4,5-dihydro-1H-pyrazolo[3,4-c]pyridin-6(7H)-yl)-2-oxoethyl)cyclohexanecarboxylic acid] |
| ≤ 0.1 µM | O=C(C[C@H]1CC[C@@H](C(=O)O)CC1)N1CCc2c(C(F)(F)F)nn(Cc3ccc(Cl)cc3Cl)c2C1 [Example 7-8, cis-4-(2-(1-(2,4-dichlorobenzyl)-3-(trifluoromethyl)-4,5-dihydro-1H-pyrazolo[3,4-c]pyridin-6(7H)-yl)-2-oxoethyl)cyclohexanecarboxylic acid] |
| ≤ 0.1 µM | O=C(O[C@H]1CC[C@@H](C(=O)O)CC1)N1CCc2c(C(F)(F)F)nn(Cc3ccc(Cl)cc3F)c2C1 [Example 7-9, cis-4-((1-(4-Chloro-2-fluorobenzyl)-3-(trifluoromethyl)-4,5,6,7-tetrahydro-1H-pyrazolo[3,4-c]pyridine-6-carbonyl)oxy)cyclohexanecarboxylic acid] |
| ≤ 0.1 µM | O=C(O[C@H]1CC[C@H](C(=O)O)CC1)N1CCc2c(C(F)(F)F)nn(Cc3ccc(Cl)cc3F)c2C1 [Example 7-10, trans-4-((1-(4-chloro-2-fluorobenzyl)-3-(trifluoromethyl)-4,5,6,7-tetrahydro-1H-pyrazolo[3,4-c]pyridine-6-carbonyl)oxy)cyclohexanecarboxylic acid] |
| ≤ 0.1 µM | O=C(C[C@H]1CC[C@H](C(=O)O)CC1)N1CCc2c(C(F)(F)F)nn(Cc3ccccc3)c2C1 [Example 7-11, trans-4-(2-(1-Benzyl-3-(trifluoromethyl)-4,5-dihydro-1H-pyrazolo[3,4-c]pyridin-6(7H)-yl)-2-oxoethyl)cyclohexanecarboxylic acid] |
| ≤ 0.1 µM | O=C(C[C@H]1CC[C@@H](C(=O)O)CC1)N1CCc2c(C(F)(F)F)nn(Cc3ccccc3)c2C1 [Example 7-12, cis-4-(2-(1-benzyl-3-(trifluoromethyl)-4,5-dihydro-1H-pyrazolo[3,4-c]pyridin-6(7H)-yl)-2-oxoethyl)cyclohexanecarboxylic acid] |
| ≤ 0.1 µM | O=C(O)[C@H]1CC[C@H](C(=O)N2CCc3c(C(F)(F)F)nn(Cc4ccc(F)cc4)c3C2)CC1 [Example 7-17, trans-4-(1-(4-Fluorobenzyl)-3-(trifluoromethyl)-4,5,6,7-tetrahydro-1H-pyrazolo[3,4-c]pyridine-6-carbonyl)cyclohexanecarboxylic acid] |
| ≤ 0.1 µM | O=C(O)[C@H]1CC[C@@H](C(=O)N2CCc3c(C(F)(F)F)nn(Cc4ccc(F)cc4)c3C2)CC1 [Example 7-18, cis-4-(1-(4-fluorobenzyl)-3-(trifluoromethyl)-4,5,6,7-tetrahydro-1H-pyrazolo[3,4-c]pyridine-6-carbonyl)cyclohexanecarboxylic acid] |
| > 0.5 µM and ≤ 10 µM | O=C(C[C@H]1CC[C@H](C(=O)O)CC1)N1CCc2c(C(F)(F)F)nn(C3CCCCC3)c2C1 [Example 7-19, trans-4-(2-(1-cyclohexyl-3-(trifluoromethyl)-4,5-dihydro-1H-pyrazolo[3,4-c]pyridin-6(7H)-yl)-2-oxoethyl)cyclohexanecarboxylic acid] |
| > 0.5 µM and ≤ 10 µM | O=C(C[C@H]1CC[C@@H](C(=O)O)CC1)N1CCc2c(C(F)(F)F)nn(C3CCCCC3)c2C1 [Example 7-20, cis-4-(2-(1-cyclohexyl-3-(trifluoromethyl)-4,5-dihydro-1H-pyrazolo[3,4-c]pyridin-6(7H)-yl)-2-oxoethyl)cyclohexanecarboxylic acid] |
| ≤ 0.1 µM | O=C(C[C@H]1CC[C@@H](C(=O)O)CC1)N1CCc2c(C(F)(F)F)nn(CCC3CCCCC3)c2C1 [Example 7-21, cis-4-(2-(1-(2-Cyclohexylethyl)-3-(trifluoromethyl)-4,5-dihydro-1H-pyrazolo[3,4-c]pyridin-6(7H)-yl)-2-oxoethyl)cyclohexanecarboxylic acid] |
| ≤ 0.1 µM | O=C(C[C@H]1CC[C@H](C(=O)O)CC1)N1CCc2c(C(F)(F)F)nn(CCC3CCCCC3)c2C1 [Example 7-22, trans-4-(2-(1-(2-cyclohexylethyl)-3-(trifluoromethyl)-4,5-dihydro-1H-pyrazolo[3,4-c]pyridin-6(7H)-yl)-2-oxoethyl)cyclohexanecarboxylic acid] |
| ≤ 0.1 µM | C[C@]1(C(=O)O)C[C@@H](CC(=O)N2CCc3c(C(F)(F)F)nn(Cc4ccc(F)cc4)c3C2)C1 [Example 7-23, cis-3-(2-(1-(4-Fluorobenzyl)-3-(trifluoromethyl)-4,5-dihydro-1H-pyrazolo[3,4-c]pyridin-6(7H)-yl)-2-oxoethyl)-1-methylcyclobutanecarboxylic acid] |

The remaining lines, values behind:

| SMILES | IC50 |
| --- | --- |
| O=C(CC1C2CC3CC1CC(C(=O)O)(C3)C2)N1CCc2c(C(F)(F)F)nn(Cc3ccc(Cl)cc3F)c2C1 (stereo not shown) [Example 5-54, 4-(2-(1-(4-Chloro-2-fluorobenzyl)-3-(trifluoromethyl)-4,5-dihydro-1H-pyrazolo[3,4-c]pyridin-6(7H)-yl)-2-oxoethyl) adamantancarboxylic acid] | ≤ 0.1 µM |
| O=C(CC1C2CC3CC1CC(C(=O)O)(C3)C2)N1CCc2c(C(F)(F)F)nn(Cc3ccc(F)cc3)c2C1 (stereo not shown) [Example 5-55] | ≤ 0.1 µM |
| CC(C)(C)OC(=O)N1CC(CC(=O)N2CCc3c(C(F)(F)F)nn(Cc4ccc(Cl)cc4F)c3C2)C[C@@H]1C(=O)O (stereo partly drawn) [Example 5-56, (2R)-1-(tert-Butoxycarbonyl)-4-(2-(1-(4-chloro-2-fluorobenzyl)-3-(trifluoromethyl)-4,5-dihydro-1H-pyrazolo[3,4-c]pyridin-6(7H)-yl)-2-oxoethyl)pyrrolidine-2-carboxylic acid] | ≤ 0.1 µM |
| CC(C(=O)N1CCc2c(C(F)(F)F)nn(Cc3ccc(Cl)cc3F)c2C1)C1CCC(C(=O)O)CC1 (stereo not shown) [Example 6-4, 4-(1-(1-(4-Chloro-2-fluorobenzyl)-3-(trifluoromethyl)-4,5-dihydro-1H-pyrazolo[3,4-c]pyridin-6(7H)-yl)-1-oxopropan-2-yl)cyclohexanecarboxylic acid] | ≤ 0.1 µM |
| CC1(C(=O)O)CCC(CC(=O)N2CCc3c(C(F)(F)F)nn(Cc4ccc(F)cc4)c3C2)CC1 (stereo not shown) [Example 6-11, 4-(2-(1-(4-Fluorobenzyl)-3-(trifluoromethyl)-4,5-dihydro-1H-pyrazolo[3,4-c]pyridin-6(7H)-yl)-2-oxoethyl)-1-methylcyclohexanecarboxylic acid] | ≤ 0.1 µM |
| O=C(O)C1CC2(CC(CC(=O)N3CCc4c(C(F)(F)F)nn(Cc5ccc(Cl)cc5F)c4C3)C2)C1 (stereo not shown) [Example 6-12, 6-(2-(1-(4-Chloro-2-fluorobenzyl)-3-(trifluoromethyl)-4,5-dihydro-1H-pyrazolo[3,4-c]pyridin-6(7H)-yl)-2-oxoethyl)spiro[3.3]heptane-2-carboxylic acid] | ≤ 0.1 µM |
| O=C(O)C1CC2(CC(CC(=O)N3CCc4c(C(F)(F)F)nn(Cc5ccc(F)cc5)c4C3)C2)C1 (stereo not shown) [Example 6-13, 6-(2-(1-(4-Fluorobenzyl)-3-(trifluoromethyl)-4,5-dihydro-1H-pyrazolo[3,4-c]pyridin-6(7H)-yl)-2-oxoethyl)spiro[3.3]heptane-2-carboxylic acid] | ≤ 0.1 µM |
| O=C(O)[C@H]1C2C3C[C@@H]1C(CC(=O)N1CCc4c(C(F)(F)F)nn(Cc5ccc(Cl)cc5F)c4C1)C32 (stereo partly drawn) [Example 6-16, (3R,4R)-5-(2-(1-(4-Chloro-2-fluorobenzyl)-3-(trifluoromethyl)-4,5-dihydro-1H-pyrazolo[3,4-c]pyridin-6(7H)-yl)-2-oxoethyl)tricyclo[2.2.1.02,6]heptane-3-carboxylic acid] | ≤ 0.1 µM |
| O=C(O)[C@H]1C2C3C[C@@H]1C(CC(=O)N1CCc4c(C(F)(F)F)nn(Cc5ccc(F)cc5)c4C1)C32 (stereo partly drawn) [Example 6-17, (3R,4R)-5-(2-(1-(4-Fluorobenzyl)-3-(trifluoromethyl)-4,5-dihydro-1H-pyrazolo[3,4-c]pyridin-6(7H)-yl)-2-oxoethyl)tricyclo[2.2.1.02,6]heptane-3-carboxylic acid] | ≤ 0.1 µM |
| CC1(C(=O)O)CC(CC(=O)N2CCc3c(C(F)(F)F)nn(Cc4ccc(Cl)cc4F)c3C2)C1 (stereo not shown) [Example 6-18, 3-(2-(1-(4-Chloro-2-fluorobenzyl)-3-(trifluoromethyl)-4,5-dihydro-1H-pyrazolo[3,4-c]pyridin-6(7H)-yl)-2-oxoethyl)-1-methylcyclobutanecarboxylic acid] | ≤ 0.1 µM |
